Patent US8658202B2, “Coated drug delivery formulations” (Western University of Health Sciences, priority 2001, dated 2014)
Like-named read-outs stand apart in the source and are kept apart here. Marks after values point to notes of the source that are not given here.

How the values were obtained:
[1] = Pharmacokinetics of halofantrine enantiomers after oral gavage of proliposomal or control suspension; type: in vivo, Sprague-Dawley rats; settings: 7 mg/kg oral gavage, rats; for AUC: AUC0-24, mean±SD; for Cmax / Tmax: mean±SD
Description: The pharmacokinetic parameters of the enteric coated proliposomal formulation of halofantrine were evaluated as follows. The proliposomal product was prepared as a suspension in 0.78% methylcellulose. A non-liposomal suspension formulation (control) was prepared by dispersing halofantrine powder in 1% methylcellulose. Sprague-Dawley rats were cannulated at the right jugular vein under halothane anesthesia. After an overnight rest, the rats were given 7 mg/kg of a halofantrine suspension as either the proliposomal (7 rats) or control (6 rats) formulation by oral gavage. Serial blood samples were obtained from the cannula until 48 h post-dose. A stereospecific HPLC assay was used to measure plasma concentration of halofantrine enantiomers. Noncompartmental pharmacokinetic methods were used to determine AUC0-24, Cmax and tmax. Student's unpaired t-test was used to assess significance of differences.

[2] = Comparison of preparation methods: texture of product; type: physicochemical; settings: 12% drug, 63% lecithin (DMPC)
From the text: (§1) One embodiment of the present invention was compared to a control method for producing pharmaceutical formulations. The control method used in the following examples is disclosed by Ganter in U.S. Pat. No. 5,635,206, herein incorporated by reference, at Example 1, except that the percentage of water used was 5% and 0%. To exemplar drugs which are poorly water soluble were used: glyburide and benzocaine.
(§2) The following tables summarize the protocol used and the results.

[3] = Comparison of preparation methods: particle size; type: physicochemical
From the text: as §1, §2

[4] = Comparison of preparation methods: absorbance in the aqueous phase (incorporation with the lipid); type: physicochemical
From the text: as §1, §2
Some embodiments of the present invention have one or more of the aforementioned advantages.

[5] = Control: halofantrine powder in 1% methylcellulose
[6] = Liposome: enteric coated proliposomal formulation

| Structure (SMILES) | Texture ([2]; Applicant's Method) | Texture ([2]; Control Method With 0% Water) | Texture ([2]; Control Method With 5% Water) | Particle Size ([3]; Applicant's Method) [μm] | Particle Size ([3]; Control Method With 0% Water) [μm] | Particle Size ([3]; Control Method With 5% Water) [μm] | Absorbance ([4]; Applicant's Method) | Absorbance ([4]; Control Method With 0% Water) | Absorbance ([4]; Control Method With 5% Water) | further results |
| --- | --- | --- | --- | --- | --- | --- | --- | --- | --- | --- |
| CCCCN(CCCC)CCC(O)c1cc2c(Cl)cc(Cl)cc2c2cc(C(F)(F)F)ccc12 (single isomer, unassigned; (+)) [(+)-HF, halofantrine] | – | – | – | – | – | – | – | – | – | AUC [1, 5]: 5.2 ± 0.81^b μg × h/mL; Cmax [1, 5]: 391 ± 59.2^b ng/mL; Tmax [1, 5]: 7.0 ± 2.3 h; AUC ([1]; Liposome: enteric coated proliposomal formulation in 0.78% methylcellulose): 7.7 ± 1.8^a,b μg × h/mL; Cmax [1, 6]: 722 ± 170^a,b ng/mL; Tmax [1, 6]: 4.1 ± 2.3 h |
| CCCCN(CCCC)CCC(O)c1cc2c(Cl)cc(Cl)cc2c2cc(C(F)(F)F)ccc12 (single isomer, unassigned; (-)) [(−)-HF, halofantrine] | – | – | – | – | – | – | – | – | – | AUC ([1]; Sprague-Dawley, rat, plasma, po, 7 mg/kg, Control: halofantrine powder in 1% methylcellulose, read-out: AUC): 1.9 ± 0.53 µg·h/mL; Cmax ([1]; Sprague-Dawley, rat, plasma, po, 7 mg/kg, Control: halofantrine powder in 1% methylcellulose, read-out: Cmax): 0.196 ± 0.0423 µg/mL; Tmax ([1]; Sprague-Dawley, rat, plasma, po, 7 mg/kg, Control: halofantrine powder in 1% methylcellulose, read-out: Tmax): 4.6 ± 2.1 h; AUC ([1]; Sprague-Dawley, rat, plasma, po, 7 mg/kg, Liposome: enteric coated proliposomal formulation in 0.78% methylcellulose, read-out: AUC): 2.6 ± 0.66 µg·h/mL; Cmax ([1]; Sprague-Dawley, rat, plasma, po, 7 mg/kg, Liposome: enteric coated proliposomal formulation, read-out: Cmax): 0.36 ± 0.0805 µg/mL; Tmax ([1]; Sprague-Dawley, rat, plasma, po, 7 mg/kg, Liposome: enteric coated proliposomal formulation, read-out: Tmax): 4 ± 1.3 h |
| COc1ccc(Cl)cc1C(=O)NCCc1ccc(S(=O)(=O)NC(=O)NC2CCCCC2)cc1 [Glyburide, glyburide] | Powder | Milky | Milky | 8.638 | 5.978 | 2.544 | 1.9446 | 3.9141 | 3.8177 | – |
| CCOC(=O)c1ccc(N)cc1 [Benzocaine, benzocaine] | Powder | Clear Solution | Clear Solution | 9.163 | 3.830 | 1.190 | 3.7377 | 3.6130 | 3.6030 | – |
